Reference: article PMC12444563 (ACS Omega, 2025)
Like-named read-outs stand apart in the source and are kept apart here. Starred links: 1 amine or outer side, 2 acyl side, 3 side chain; linkers in the order of their positions; H or OH if unused. Non-standard residues stand in square brackets, D forms with d. Residues, ends and D or L forms follow the SMILES beside them. *: point of attachment. Paclitaxel(2'-OCO-DMEDA) = CC(=O)O[C@H]1C(=O)[C@@]2(C)[C@H]([C@H](OC(=O)c3ccccc3)[C@]3(O)C[C@H](OC(=O)[C@H](OC(=O)N(C)CCN(C)*)[C@@H](NC(=O)c4ccccc4)c4ccccc4)C(C)=C1C3(C)C)[C@]1(OC(C)=O)CO[C@@H]1C[C@@H]2O; Fmoc = O=C(OCC1c2ccccc2-c2ccccc21)*; PABC = O=C(OCc1ccc(N[*:1])cc1)[*:2]

Tests used:
[1] = Plasma stability assay, rat plasma; format: in vitro ADME, rat (Sprague Dawley); details: 37 °C; for remaining at 0.5 h, 1 μM / remaining at 2 h, 1 μM / remaining at 4 h, 1 μM: Sprague Dawley, rat, plasma, read-out: Plasma stability (matrix: rat) % remaining; for remaining at 0.5 h, 1 μM: 30 min; for remaining at 2 h, 1 μM: 120 min
Procedure: (§1) The plasma stability assays were performed by Selvita SA (Krakow, Poland) following the protocol described in the Supporting Information. For the use of human plasma, consent was obtained from the subject or from the next of kin.
(§2) 9. Plasma stability assays
(§3) Protocol for full plasma assay: a stock solution of compounds 1-4 in DMSO was incubated in human (Anticoagulants: Na Heparin; Gender: Pooled; Cat. No: IPLANAH100ML; Lot: 37921; Supplier:
(§4) Innovative Research) and rat (Strain: Sprague Dawley; Anticoagulants: Na Heparin; Cat. No:
(§5) IGRTSDPLANAH100ML; Supplier: Innovative Research) plasma at a final concentration of 1 μM (final concentration of DMSO = 1 %). The samples were incubated at 37 °C with a shaking of 450 rpm. Aliquots of the samples were analyzed at time 0, 30 minutes, 2 and 4 hours by LC-MS/MS […]
(§6) The areas of the peak of the compounds 1-4 in the LC chromatogram were used to evaluate stability profile. The percentage of residual compounds 1-4 was calculated as the ratio between the area of the peak of the analyte and the area of the internal standard.
(§7) % residual compound = Area analyte ∙ 100
(§8) Table S7. LC-MS data of the stability assays in plasma extracts of compound 1.
(§9) Stability assays compound 1
(§10) Time Plasma stability Plasma stability S9 stability S9 stability
(§11) (min.) (matrix: rat) (matrix: human) Time (min.) (matrix: rat) (matrix: human) % remaining % remaining % remaining % remaining
(§12) Table S8. LC-MS data of the stability assays in plasma extracts of compound 2.
(§13) Stability assays compound 2

[2] = Plasma stability assay, human plasma; format: in vitro ADME; details: 37 °C; for remaining at 0.5 h, 1 μM / remaining at 2 h, 1 μM / remaining at 4 h, 1 μM: both sexes, human, plasma, read-out: Plasma stability (matrix: human) % remaining; for remaining at 0.5 h, 1 μM: 30 min; for remaining at 2 h, 1 μM: 120 min
Procedure: as §1, §2, §3, §4, §5, §6, §7, §8, §9, §10, §11, §12, §13

[3] = molecular target: T1, bovine spleen Cathepsin B (Bos taurus, UniProt P07688); experiment: Cathepsin B cleavage assay (UHPLC-HRMS Orbitrap analysis); format: biochemical; details: for % residual compound, Average %: 37 °C, pH 5.4, 5 μM, triplicate
T1 construct: bovine spleen Cathepsin B (SigmaAldrich C6286, ≥10 units/mg protein); purchased SigmaAldrich C6286; host or cells: bovine spleen (tissue-derived)
Procedure: The Cathepsin B cleavage assay was performed by incubating compounds 1–4 at 37 °C under gently shaking conditions in the presence of the active form of Cathepsin B. More specifically, 122.4 μL of an enzyme-activating solution (composed of 7.48 mg of L-cysteine dissolved in 2 mL of a buffer solution containing 20 mM NaOAc, 1 mM EDTA, pH 5.4 to give a final cysteine concentration of 30.88 mM) was mixed with 12.6 μL of enzyme stock solution, previously prepared by solubilization of bovine spleen Cathepsin B (SigmaAldrich C6286, ≥10 units/mg protein) in 1 mL of buffer solution (without cysteine) to give a concentration of enzyme stock solution of 12 units/mL. After the dilution, the final concentration of Cathepsin B was 1.12 u/mL. Then, the diluted enzyme solution was incubated at 37 °C for 15 min to activate Cathepsin B. After 15 min, 6 μL of 117 μM compound solution, previously prepared by diluting 5.85 μL of 1 mM stock solution of the compound in 44.15 μL of dry DMSO (giving a 117 μM solution), was added to the test tube and the cleavage assay solution was incubated at 37 °C under gentle shaking conditions. […] The solutions were then centrifuged for 10 min at 6000 rpm. Blank solutions were prepared for each compound by dilution of 6 μL of a 117 μM compound solution into 135 μL of an enzyme-activating solution. UHPLC-MS analyses were carried out using a Vanquish UHPLC System (Thermo Fisher Scientific) and Orbitrap Exploris 120 (Thermo Fisher Scientific). Thermo Scientific Xcalibur software was used to control the instruments and acquire the data. Freestyle 1.8 software was used for processing the data. UHPLC chromatographic separations were performed on a reversed-phase column Accucore C18 50 × 2.1 mm, 2.6 μm (Thermo Fisher Scientific). A gradient system was used with the mobile phase consisting of solvent A: H2O + 0.05% formic acid and solvent B: acetonitrile. The areas of the peak of compounds 1–4 in the extracted ion chromatogram were used to evaluate the kinetics of the cleavage process. The percentage of residual compound was calculated as the ratio between the areas of the peak of the full compound at the desired time point and in the blank analysis. %Residualcompound=areacompoundatthedesiredtimepoint/areacompoundintheblanksolution×100

[4] = pH stability assay (buffers pH 5.4 and 7.4, UHPLC-HRMS); format: physicochemical; details: 37 °C, average of two replicates
Procedure: The pH stability assay was performed by incubating compounds 1–4 at 37 °C in buffers at pH 5.4 and 7.4 under gentle shaking conditions. More specifically, a solution of 20 mM AcONa and 1 mM EDTA in mQ water was used as a pH 5.4 buffer. A solution of PBS tablets in mQ water was used as a pH 7.4 buffer. A 1 mM stock solution of compounds 1–4 in dry DMSO was prepared and a […] solution was then obtained by dilution of 5.85 μL of the stock solution in 44.15 μL of dry DMSO. Then, 6 μL of the […] compound solution was diluted into 135 μL of the desired buffer, and the solution was incubated at 37 °C under gently shaking conditions. Samples aliquots (10 μL) were taken out at 15, 30 min and 1, 2, and 4 h and quenched with 10 μL of acetonitrile. The solutions were then injected in UHPLC-HRMS to monitor the stability of compounds 1–4 under different pH conditions. UHPLC-MS analyses were carried out as previously described for the Cathepsin B cleavage assay. The percentage of the residual compound was calculated as described above.
The stability of compounds 1–4 and of the free drug PTX was evaluated in vitro by UHPLC-Orbitrap analysis incubating the samples at 37 °C in buffer solutions at pH 5.4, to simulate the pH inside the cancer cells, and at physiological pH 7.4. The same buffer of the Cathepsin B cleavage assay was used for the test at pH 5.4. The percentage of residual compounds 1–4 was measured over time by calculating the ratio between the areas of the peak of the full compound at the desired time point and at time zero, and the results were compared with the percentage of residual compounds 1–4 calculated during the Cathepsin B cleavage assay (Tables S6).

[5] = 2 min incubation with Cathepsin B
[6] = 15 min incubation with Cathepsin B
[7] = 30 min incubation with Cathepsin B
[8] = 60 min incubation with Cathepsin B
[9] = 120 min incubation with Cathepsin B
[10] = PBS pH 7.4, pH 7.4 PBS, 30 min, read-out: Stability pH 7.4, % residual compound

SMILES	remaining at 0.5 h, 1 μM [1] [%]	remaining at 2 h, 1 μM [1] [%]	remaining at 4 h, 1 μM ([1]; 240 min (4 h)) [%]	remaining at 0.5 h, 1 μM [2] [%]	remaining at 2 h, 1 μM [2] [%]	remaining at 4 h, 1 μM ([2]; 240 min (4 h)) [%]	% residual compound, Average % [3, 5] [%]	% residual compound, Average % [3, 6] [%]	% residual compound, Average % [3, 7] [%]	% residual compound, Average % [3, 8] [%]	% residual compound, Average % [3, 9] [%]	% residual compound, % R1 ([3]; replicate R1, 2 min) [%]	% residual compound, % R1 ([3]; replicate R1, 15 min) [%]	% residual compound, % R1 ([3]; replicate R1, 30 min) [%]	% residual compound, % R1 ([3]; replicate R1, 60 min) [%]	% residual compound, % R1 ([3]; replicate R1, 120 min) [%]	% residual compound, % R1 ([3]; replicate R1, 240 min) [%]	% residual compound, % R3 ([3]; replicate R3, 2 min) [%]	% residual compound, % R3 ([3]; replicate R3, 15 min) [%]	% residual compound, % R3 ([3]; replicate R3, 30 min) [%]	further results
CC(=O)O[C@H]1C(=O)[C@@]2(C)[C@H]([C@H](OC(=O)c3ccccc3)[C@]3(O)C[C@H](OC(=O)[C@H](OC(=O)N(C)CCN(C)C(=O)OCc4ccc(NC(=O)CNC(=O)[C@H](CC(C)C)NC(=O)[C@@H]5CCCN5C(=O)CNC(=O)OCC5c6ccccc6-c6ccccc65)cc4)[C@@H](NC(=O)c4ccccc4)c4ccccc4)C(C)=C1C3(C)C)[C@]1(OC(C)=O)CO[C@@H]1C[C@@H]2O [Compound 1, Fmoc-GPLG-PABC-diamine-PTX] (Fmoc-GPLG[PABC]-{Paclitaxel(2'-OCO-DMEDA)})	98.1	111	103	98.9	117	112	94.40	80.50	73.35	68.45	65.40	108.85	85.04	73.97	68.69	69.51	56.09	97.22	78.25	74.08	Plasma stability (matrix: rat) % remaining ([1]; 1 μM, 240 min (4 h)): 100%; Plasma stability (matrix: human) % remaining ([2]; 1 μM, 240 min (4 h)): 100%; peak of free Paclitaxel in the incubated solution ([3]; 4 h incubation with Cathepsin B, HRMS): not possible to observe; peak of free PTX in the incubated solution ([3]; 24 h incubation with Cathepsin B, HRMS): confirmed the presence; cleavage kinetics compared within compounds 1-4 ([3]; Cathepsin B, compound 1: initial time points 2 min to 1 h, compound 2: over 4 h): fastest; % residual compound, % R3 ([3]; replicate R3, 60 min): 69.05%; % residual compound, % R3 ([3]; replicate R3, 120 min): 67.07%; % residual compound, % R3 ([3]; replicate R3, 240 min): 70.97%; remaining at 0.5 h, 4.98 µM [4, 10]: 115%; Stability pH 5.4, % residual compound ([4]; pH 5.4 buffer, 30 min): 93.60%; Stability pH 5.4, % residual compound ([4]; pH 5.4 buffer, 120 min): 93.87%; Stability pH 5.4, % residual compound ([4]; pH 5.4 buffer, 240 min (4 h)): 93.78%; Stability pH 7.4, % residual compound ([4]; pH 7.4 PBS, 120 min): 97.00%; Stability pH 7.4, % residual compound ([4]; pH 7.4 PBS, 240 min): 113.04%
CC(=O)O[C@H]1C(=O)[C@@]2(C)[C@H]([C@H](OC(=O)c3ccccc3)[C@]3(O)C[C@H](OC(=O)[C@H](OC(=O)N(C)CCN(C)C(=O)OCc4ccc(NC(=O)CNC(=O)[C@H](CC(C)C)NC(=O)[C@H](Cc5ccccc5)NC(=O)CNC(=O)OCC5c6ccccc6-c6ccccc65)cc4)[C@@H](NC(=O)c4ccccc4)c4ccccc4)C(C)=C1C3(C)C)[C@]1(OC(C)=O)CO[C@@H]1C[C@@H]2O [Compound 2, Fmoc-GFLG-PABC-diamine-PTX] (Fmoc-GFLG[PABC]-{Paclitaxel(2'-OCO-DMEDA)})	92.1	99	103	102	104	93.9	99.63	98.45	95.35	95.89	94.14	99.33	98.52	92.26	92.45	99.27	96.36	104.39	102.02	95.37	% residual compound, % R3 ([3]; replicate R3, 60 min): 97.64%; % residual compound, % R3 ([3]; replicate R3, 120 min): 90.86%; % residual compound, % R3 ([3]; replicate R3, 240 min): 89.52%; remaining at 0.5 h, 4.98 µM [4, 10]: 90.6%; remaining at 2 h, 4.98 µM ([4]; PBS pH 7.4, pH 7.4 PBS, 120 min, read-out: Stability pH 7.4, % residual compound): 90.5%; remaining at 2 h, 4.98 µM ([4]; acetate/EDTA buffer pH 5.4, pH 5.4 buffer, 120 min, read-out: Stability pH 5.4, % residual compound): 85.4%; remaining at 4 h, 4.98 µM ([4]; acetate/EDTA buffer pH 5.4, pH 5.4 buffer, 240 min (4 h), read-out: Stability pH 5.4, % residual compound): 86.8%; Stability pH 5.4, % residual compound ([4]; pH 5.4 buffer, 30 min): 92.49%; Stability pH 7.4, % residual compound ([4]; pH 7.4 PBS, 240 min): 91.99%
